Values of other authors as cited in paper PMC9516332 (Frontiers in Oncology, 2022).
Read-outs that look alike come from different tables or passages of the source.

How the values were obtained:
[1] = target: panel of 255 wild-type kinases (Homo sapiens, UniProt Q8IU85); settings: CaMK1δ kinase assay, 1 µmol/L single concentration, cited from earlier work
[2] = target: panel of 255 wild-type kinases (Homo sapiens, UniProt Q9H0K1); settings: kinase QIK, 1 µmol/L single concentration, cited from earlier work
[3] = target: panel of 255 wild-type kinases (Homo sapiens, UniProt P22607); settings: kinase FGFR3, 1 µmol/L single concentration, cited from earlier work
[4] = target: T1, panel of 255 wild-type kinases (Homo sapiens, UniProt Q16566); settings: CaMK4 kinase assay, 1 µmol/L single concentration, cited from earlier work
T1 sequence (Q16566 1-473): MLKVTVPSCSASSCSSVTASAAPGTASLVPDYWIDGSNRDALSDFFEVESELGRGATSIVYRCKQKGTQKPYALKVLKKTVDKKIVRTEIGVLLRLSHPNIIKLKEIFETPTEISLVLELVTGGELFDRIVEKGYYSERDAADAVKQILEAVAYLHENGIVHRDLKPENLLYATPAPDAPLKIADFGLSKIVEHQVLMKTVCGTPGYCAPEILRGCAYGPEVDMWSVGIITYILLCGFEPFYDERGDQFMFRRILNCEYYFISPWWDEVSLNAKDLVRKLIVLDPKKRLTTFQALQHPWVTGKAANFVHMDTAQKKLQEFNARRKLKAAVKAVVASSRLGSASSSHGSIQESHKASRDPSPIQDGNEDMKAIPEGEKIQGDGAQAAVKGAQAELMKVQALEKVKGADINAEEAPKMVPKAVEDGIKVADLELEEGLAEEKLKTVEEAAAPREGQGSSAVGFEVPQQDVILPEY

[5] = target: panel of 255 wild-type kinases (Homo sapiens, UniProt Q96GD4); settings: AurB kinase assay, 1 µmol/L single concentration, cited from earlier work
[6] = target: panel of 255 wild-type kinases (Homo sapiens, UniProt P07949); settings: kinase RET, 1 µmol/L single concentration, cited from earlier work
[7] = target: panel of 255 wild-type kinases (Homo sapiens, UniProt P53779); settings: kinase JNK3, 1 µmol/L single concentration, cited from earlier work
[8] = target: T2, panel of 255 wild-type kinases (Homo sapiens, UniProt P53778); settings: p38γ, 1 µmol/L single concentration, cited from earlier work
T2 sequence (P53778 1-367): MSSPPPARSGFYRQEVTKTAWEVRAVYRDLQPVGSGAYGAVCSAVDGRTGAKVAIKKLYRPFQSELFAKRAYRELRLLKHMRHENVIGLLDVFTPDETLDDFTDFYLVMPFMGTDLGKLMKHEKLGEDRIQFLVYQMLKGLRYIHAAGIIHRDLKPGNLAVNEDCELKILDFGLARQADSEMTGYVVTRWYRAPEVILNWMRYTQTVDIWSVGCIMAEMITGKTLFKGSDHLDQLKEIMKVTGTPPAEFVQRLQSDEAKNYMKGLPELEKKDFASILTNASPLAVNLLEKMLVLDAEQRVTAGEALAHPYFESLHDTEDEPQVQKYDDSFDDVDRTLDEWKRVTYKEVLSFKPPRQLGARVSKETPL

[9] = target: panel of 255 wild-type kinases (Homo sapiens, UniProt P09619); settings: kinase PDGFRβ, 1 µmol/L single concentration, cited from earlier work
[10] = target: panel of 255 wild-type kinases (Homo sapiens, UniProt Q16654); settings: kinase PDHK4, 1 µmol/L single concentration, cited from earlier work
[11] = target: panel of 255 wild-type kinases (Homo sapiens, UniProt Q15375); settings: kinase EPHA7, 1 µmol/L single concentration, cited from earlier work
[12] = target: panel of 255 wild-type kinases (Homo sapiens, UniProt Q8IY84); settings: NIM1K; 1 µmol/L single concentration; ref DOI: 10.1158/1535-7163.MCT-18-0877; cited from earlier work
[13] = ref DOI: 10.1371/journal.pone.0092146
[14] = ref DOI: 10.1158/1535-7163.MCT-18-0877

SMILES: CCCS(=O)(=O)Nc1ccc(F)c(C(=O)c2c[nH]c3ncc(-c4ccc(Cl)cc4)cc23)c1F [vemurafenib]
- %-inhibition CaMK1δ [1, 13]: -7%
- %-inhibition at 1 µmol/L, QIK [2, 13]: 6%
- %-inhibition at 1 µmol/L, FGFR3 [3, 13]: 15%
- %-inhibition CaMK4 [4, 13]: -2.38%
- %-inhibition AurB [5, 13]: 6%
- %-inhibition at 1 µmol/L, RET [6, 13]: 32%
- %-inhibition at 1 µmol/L, JNK3 [7, 13]: 2.85%
- %-inhibition, p38γ [8, 13]: -0.299%
- %-inhibition at 1 µmol/L, PDGFRβ [9, 13]: 33%
- %-inhibition at 1 µmol/L, PDHK4 [10, 13]: -1.4%
- %-inhibition at 1 µmol/L, EPHA7 [11, 13]: -0.639%

SMILES: CC(=O)Nc1cccc(-n2c(=O)n(C3CC3)c(=O)c3c(Nc4ccc(I)cc4F)n(C)c(=O)c(C)c32)c1 [trametinib]
- %-inhibition CaMK1δ [1, 13]: -3.3%
- %-inhibition at 1 µmol/L, QIK [2, 13]: -4.66%
- %-inhibition at 1 µmol/L, FGFR3 [3, 13]: -5.68%
- %-inhibition CaMK4 [4, 13]: -5.45%
- %-inhibition AurB [5, 13]: -4%
- %-inhibition at 1 µmol/L, RET [6, 13]: -8%
- %-inhibition at 1 µmol/L, JNK3 [7, 13]: -2.37%
- %-inhibition, p38γ [8, 13]: 0.684%
- %-inhibition at 1 µmol/L, PDGFRβ [9, 13]: 3.44%
- %-inhibition at 1 µmol/L, PDHK4 [10, 13]: -1.65%
- %-inhibition at 1 µmol/L, EPHA7 [11, 13]: -5%

SMILES: CCc1cc2c(cc1N1CCC(N3CCOCC3)CC1)C(C)(C)c1[nH]c3cc(C#N)ccc3c1C2=O [alectinib]
- %-inhibition CaMK1δ [1, 14]: -3.42%
- %-inhibition at 1 µmol/L, QIK [2, 14]: 3%
- %-inhibition at 1 µmol/L, FGFR3 [3, 14]: 8%
- %-inhibition CaMK4 [4, 14]: -4%
- %-inhibition AurB [5, 14]: 9%
- %-inhibition, NIM1K [12]: -2.13%
- %-inhibition at 1 µmol/L, RET [6, 14]: 91%
- %-inhibition at 1 µmol/L, JNK3 [7, 14]: -0.533%
- %-inhibition, p38γ [8, 14]: 1.73%
- %-inhibition at 1 µmol/L, PDGFRβ [9, 14]: 26%
- %-inhibition at 1 µmol/L, PDHK4 [10, 14]: 1.7%
- %-inhibition at 1 µmol/L, EPHA7 [11, 14]: 1.58%

SMILES: CC(C)(C)c1nc(-c2cccc(NS(=O)(=O)c3c(F)cccc3F)c2F)c(-c2ccnc(N)n2)s1 [dabrafenib]
- %-inhibition at 1 µmol/L, QIK [2, 13]: 80%
- %-inhibition at 1 µmol/L, FGFR3 [3, 13]: 4.27%
- %-inhibition CaMK4 [4, 13]: 78%
- %-inhibition AurB [5, 13]: 39%
- %-inhibition at 1 µmol/L, RET [6, 13]: 49%
- %-inhibition at 1 µmol/L, JNK3 [7, 13]: 5.59%
- %-inhibition, p38γ [8, 13]: 0.311%
- %-inhibition at 1 µmol/L, PDHK4 [10, 13]: -1%
- %-inhibition at 1 µmol/L, EPHA7 [11, 13]: 13%

SMILES: CC#CC(=O)N1CCC[C@H]1c1nc(-c2ccc(C(=O)Nc3ccccn3)cc2)c2c(N)nccn12 [acalabrutinib]
- %-inhibition CaMK1δ [1, 14]: -5%
- %-inhibition at 1 µmol/L, QIK [2, 14]: -0.215%
- %-inhibition at 1 µmol/L, FGFR3 [3, 14]: -1.31%
- %-inhibition CaMK4 [4, 14]: -8.42%
- %-inhibition AurB [5, 14]: 11%
- %-inhibition, NIM1K [12]: -7%
- %-inhibition at 1 µmol/L, RET [6, 14]: 14%
- %-inhibition at 1 µmol/L, JNK3 [7, 14]: -0.893%
- %-inhibition, p38γ [8, 14]: -1.74%
- %-inhibition at 1 µmol/L, PDGFRβ [9, 14]: 5.36%
- %-inhibition at 1 µmol/L, PDHK4 [10, 14]: 0.391%
- %-inhibition at 1 µmol/L, EPHA7 [11, 14]: -3.54%

SMILES: O=C(c1ccc(F)c(F)c1Nc1ccc(I)cc1F)N1CC(O)([C@@H]2CCCCN2)C1 [cobimetinib]
- %-inhibition CaMK1δ [1, 14]: 1%
- %-inhibition at 1 µmol/L, QIK [2, 14]: 2.37%
- %-inhibition at 1 µmol/L, FGFR3 [3, 14]: 5%
- %-inhibition CaMK4 [4, 14]: 2%
- %-inhibition AurB [5, 14]: -11%
- %-inhibition, NIM1K [12]: -3.67%
- %-inhibition at 1 µmol/L, RET [6, 14]: 4%
- %-inhibition at 1 µmol/L, JNK3 [7, 14]: -0.412%
- %-inhibition, p38γ [8, 14]: 2%
- %-inhibition at 1 µmol/L, PDGFRβ [9, 14]: 2%
- %-inhibition at 1 µmol/L, PDHK4 [10, 14]: -1.13%
- %-inhibition at 1 µmol/L, EPHA7 [11, 14]: 1.75%

SMILES: C=CC(=O)Nc1cc(Nc2nccc(-c3cn(C)c4ccccc34)n2)c(OC)cc1N(C)CCN(C)C [osimertinib]
- %-inhibition CaMK1δ [1, 14]: 9%
- %-inhibition at 1 µmol/L, QIK [2, 14]: 33%
- %-inhibition at 1 µmol/L, FGFR3 [3, 14]: 10%
- %-inhibition CaMK4 [4, 14]: 2.5%
- %-inhibition AurB [5, 14]: -1.24%
- %-inhibition, NIM1K [12]: -10%
- %-inhibition at 1 µmol/L, RET [6, 14]: 7%
- %-inhibition at 1 µmol/L, JNK3 [7, 14]: 1.89%
- %-inhibition, p38γ [8, 14]: 2.19%
- %-inhibition at 1 µmol/L, PDGFRβ [9, 14]: 87%
- %-inhibition at 1 µmol/L, PDHK4 [10, 14]: 0.264%
- %-inhibition at 1 µmol/L, EPHA7 [11, 14]: 2.35%

SMILES: Cc1cc(Nc2ncc(Cl)c(Nc3ccccc3S(=O)(=O)C(C)C)n2)c(OC(C)C)cc1C1CCNCC1 [ceritinib]
- %-inhibition CaMK1δ [1, 14]: 48%
- %-inhibition at 1 µmol/L, QIK [2, 14]: 7.41%
- %-inhibition at 1 µmol/L, FGFR3 [3, 14]: 21%
- %-inhibition CaMK4 [4, 14]: 30%
- %-inhibition AurB [5, 14]: 8%
- %-inhibition, NIM1K [12]: -1.37%
- %-inhibition at 1 µmol/L, RET [6, 14]: 32%
- %-inhibition at 1 µmol/L, JNK3 [7, 14]: 16%
- %-inhibition, p38γ [8, 14]: 3.32%
- %-inhibition at 1 µmol/L, PDGFRβ [9, 14]: 55%
- %-inhibition at 1 µmol/L, PDHK4 [10, 14]: 2.55%
- %-inhibition at 1 µmol/L, EPHA7 [11, 14]: 4.64%

SMILES: CO[C@@H]1[C@H](N(C)C(=O)c2ccccc2)C[C@H]2O[C@]1(C)n1c3ccccc3c3c4c(c5c6ccccc6n2c5c31)C(=O)NC4 [midostaurin]
- %-inhibition CaMK4 [4, 14]: 3.79%
- %-inhibition AurB [5, 14]: 86%
- %-inhibition, NIM1K [12]: 1.15%
- %-inhibition at 1 µmol/L, RET [6, 14]: 94%
- %-inhibition, p38γ [8, 14]: 7%
- %-inhibition at 1 µmol/L, PDGFRβ [9, 14]: 100%
- %-inhibition at 1 µmol/L, PDHK4 [10, 14]: 1.09%
- %-inhibition at 1 µmol/L, EPHA7 [11, 14]: 19%

SMILES: C=CC(=O)N1CCC[C@@H](n2nc(-c3ccc(Oc4ccccc4)cc3)c3c(N)ncnc32)C1 [ibrutinib]
- %-inhibition CaMK1δ [1, 14]: 5%
- %-inhibition at 1 µmol/L, QIK [2, 14]: 4.7%
- %-inhibition at 1 µmol/L, FGFR3 [3, 14]: 82%
- %-inhibition CaMK4 [4, 14]: 3%
- %-inhibition AurB [5, 14]: -1.1%
- %-inhibition, NIM1K [12]: -2.33%
- %-inhibition at 1 µmol/L, RET [6, 14]: 88%
- %-inhibition at 1 µmol/L, JNK3 [7, 14]: 1%
- %-inhibition, p38γ [8, 14]: 3.51%
- %-inhibition at 1 µmol/L, PDGFRβ [9, 14]: 55%
- %-inhibition at 1 µmol/L, EPHA7 [11, 14]: 7%

SMILES: C[C@@H](Oc1cc(-c2cnn(C3CCNCC3)c2)cnc1N)c1c(Cl)ccc(F)c1Cl [crizotinib]
- %-inhibition CaMK1δ [1, 13]: -4%
- %-inhibition at 1 µmol/L, QIK [2, 13]: 38%
- %-inhibition at 1 µmol/L, FGFR3 [3, 13]: 43%
- %-inhibition at 1 µmol/L, JNK3 [7, 13]: -1.87%
- %-inhibition at 1 µmol/L, PDGFRβ [9, 13]: 18%
- %-inhibition at 1 µmol/L, PDHK4 [10, 13]: -3.76%
